Measurements: US12324893B2, “Triptan microporation delivery system” (PassPort Technologies, Inc., priority 2019, dated 2025)
Like-named read-outs stand apart in the source and are kept apart here.

Assays:
[1] = Administration route study in guinea pigs (Example 5); format: in vivo; conditions: for AUC / Cmax / Tmax: guinea pig, blood
Procedure: This example describes an administration route study in guinea pigs using the same method mentioned in Example 4. In this study, base refers to Zomitriptan.
In this study, five groups of guinea pigs were tested under the following conditions: (1) Group 1 (10 mg base/4 ml, oral route); (2) Group 2 (5 mg base/2 ml, oral route); (3) Group 3 (2 mg base/4 mL, oral route); (4) Group 4 (2.0 mg base/cm^2, transdermal microporation); and (5) Group 5 (2 mg/200 μL, SubQ). The given bioavailability of Tables 6 is relative bioavailability against subcutaneous injection.

[2] = Effect of filament density, poration energy and filament array size on PK profile (Examples 7-9); set-up: species or system guinea pigs; conditions: guinea pig, in vivo; for bioavailability: sc, relative bioavailability against SC injection, read-out: Bioavailability ± SE; for AUC / Cmax / Tmax: topical or ocular
Procedure: This example describes various effects of filament density. To investigate the effect of filament density on PK profile and side effects (pain by poration and skin irritation), these studies were conducted. The filament density mainly affects the area to be utilized for the transfer of body fluid and ingredients in between skin and patch. The range of filament density was 100 filaments/cm^2 to 400 filaments/cm^2, and the poration energy was from 3 to 4 mJ/filament.
This example describes various effects to heating energy. The poration energy is related to the pore shape such as depth and width.
This example describes the selection of a desirable filament array size. Assuming the higher dose than 2 mg dose with the conditions 400 filaments/cm^2 filament density and 4 or 5 mJ/filament energy, filament array size may need to be made bigger. The range of dose was 0.5 to 4 mg, and the range of filament array size was 1.0 to 2.0 cm^2.

[3] = Group 1: 10 mg base/4 ml, oral route
[4] = Group 2: 5 mg base/2 ml, oral route
[5] = Group 3: 2 mg base/4 mL, oral route
[6] = topical or ocular, Group 4: 2.0 mg base/cm^2, transdermal microporation
[7] = 0.5 mg, Table 17 #1: dose 0.50 mg, 4 mJ/filament, filament array area 1.0 cm^2, 400 filaments/cm^2
[8] = 2 mg, Table 13 # 1: 100 filaments/cm^2, 3 mJ/filament, area 1.0 cm^2, patch 2.00 mg Zolmitriptan
[9] = 2 mg, Table 13 # 2: 200 filaments/cm^2, 3 mJ/filament, area 1.0 cm^2, patch 2.00 mg Zolmitriptan
[10] = 2 mg, Table 13 # 3: 400 filaments/cm^2, 3 mJ/filament, area 1.0 cm^2, patch 2.00 mg Zolmitriptan
[11] = 2 mg, Table 13 # 4: 100 filaments/cm^2, 4 mJ/filament, area 1.0 cm^2, patch 2.00 mg Zolmitriptan
[12] = 2 mg, Table 13 # 5: 200 filaments/cm^2, 4 mJ/filament, area 1.0 cm^2, patch 2.00 mg Zolmitriptan
[13] = 2 mg, Table 13 # 6: 400 filaments/cm^2, 4 mJ/filament, area 1.0 cm^2, patch 2.00 mg Zolmitriptan
[14] = 2 mg, Table 15 # 1: 400 filaments/cm^2, 2 mJ/filament, area 1.0 cm^2, patch 2.00 mg Zolmitriptan
[15] = 2 mg, Table 15 # 2: 400 filaments/cm^2, 3 mJ/filament, area 1.0 cm^2, patch 2.00 mg Zolmitriptan
[16] = 2 mg, Table 15 # 3: 400 filaments/cm^2, 4 mJ/filament, area 1.0 cm^2, patch 2.00 mg Zolmitriptan
[17] = 2 mg, Table 15 # 4: 400 filaments/cm^2, 5 mJ/filament, area 1.0 cm^2, patch 2.00 mg Zolmitriptan
[18] = 2 mg, Table 17 # 2: dose 2.00 mg, 4 mJ/filament, filament array area 1.0 cm^2, 400 filaments/cm^2
[19] = 3 mg, Table 17 # 3: dose 3.00 mg, 4 mJ/filament, filament array area 1.0 cm^2, 400 filaments/cm^2
[20] = 4 mg, Table 17 # 4: dose 4.00 mg, 4 mJ/filament, filament array area 1.5 cm^2, 400 filaments/cm^2
[21] = 4 mg, Table 17 # 5: dose 4.00 mg, 4 mJ/filament, filament array area 2.0 cm^2, 400 filaments/cm^2
[22] = 4 mg, Table 17 # 6: dose 4.00 mg, 5 mJ/filament, filament array area 1.5 cm^2, 400 filaments/cm^2

- BA ([1]; Group 1: 10 mg base/4 ml, oral route, relative bioavailability against subcutaneous injection): 16.2%
- BA ([1]; Group 2: 5 mg base/2 ml, oral route, relative bioavailability against subcutaneous injection): 8.3%
- BA ([1]; Group 3: 2 mg base/4 mL, oral route, relative bioavailability against subcutaneous injection): 4.5%
- BA ([1]; Group 4: 2.0 mg base/cm^2, transdermal microporation, relative bioavailability against subcutaneous injection): 84.2%
- BA ([1]; Group 5: 2 mg/200 μL, SubQ, relative bioavailability against subcutaneous injection (reference)): 100.0%
- AUC [1, 3]: 1390 ng·h/mL
- Cmax [1, 3]: 910 ng/mL
- Tmax [1, 3]: 0.44 h
- AUC [1, 4]: 353 ng·h/mL
- Cmax [1, 4]: 259 ng/mL
- Tmax [1, 4]: 0.56 h
- AUC [1, 5]: 77 ng·h/mL
- Cmax [1, 5]: 25 ng/mL
- Tmax [1, 5]: 0.33 h
- AUC ([1]; sc, Group 5: 2 mg/200 μL, SubQ): 1710 ng·h/mL
- Cmax ([1]; sc, Group 5: 2 mg/200 μL, SubQ): 3880 ng/mL
- Tmax ([1]; sc, Group 5: 2 mg/200 μL, SubQ): 0.09 h
- Cmax [1, 6]: 864 ng/mL
- Tmax [1, 6]: 0.5 h
- AUC ([1]; topical or ocular, Group 4: 2.0 mg base/cm^2, transdermal microporation (400 pores/cm^2, 5.2 mJ/filament)): 1440 ng·h/mL
- bioavailability ([2]; 0.5 mg, Table 17 #1: dose 0.50 mg, 4 mJ/filament, 1.0 cm^2, 400 filaments/cm^2): 70.6 ± 4.5%
- bioavailability ([2]; 2 mg, Table 13 # 1: 100 filaments/cm^2, 3 mJ/filament, 1.0 cm^2, 2.00 mg patch): 11.5 ± 0.6%
- bioavailability ([2]; 2 mg, Table 13 # 2: 200 filaments/cm^2, 3 mJ/filament, 1.0 cm^2, 2.00 mg patch): 73.8 ± 8.6%
- bioavailability ([2]; 2 mg, Table 13 # 3: 400 filaments/cm^2, 3 mJ/filament, 1.0 cm^2, 2.00 mg patch): 85 ± 5.6%
- bioavailability ([2]; 2 mg, Table 13 # 4: 100 filaments/cm^2, 4 mJ/filament, 1.0 cm^2, 2.00 mg patch): 50.3 ± 5.5%
- bioavailability ([2]; 2 mg, Table 13 # 5: 200 filaments/cm^2, 4 mJ/filament, 1.0 cm^2, 2.00 mg patch): 49.9 ± 7.7%
- bioavailability ([2]; 2 mg, Table 13 # 6: 400 filaments/cm^2, 4 mJ/filament, 1.0 cm^2, 2.00 mg patch): 102 ± 13.3%
- bioavailability ([2]; 2 mg, Table 15 # 1: 400 filaments/cm^2, 2 mJ/filament, 1.0 cm^2, 2.00 mg patch): 72.4 ± 10%
- bioavailability ([2]; 2 mg, Table 15 # 2: 400 filaments/cm^2, 3 mJ/filament, 1.0 cm^2, 2.00 mg patch): 85 ± 5.6%
- bioavailability ([2]; 2 mg, Table 15 # 3: 400 filaments/cm^2, 4 mJ/filament, 1.0 cm^2, 2.00 mg patch): 102 ± 13.3%
- bioavailability ([2]; 2 mg, Table 15 # 4: 400 filaments/cm^2, 5 mJ/filament, 1.0 cm^2, 2.00 mg patch): 95.5 ± 5.3%
- bioavailability ([2]; 2 mg, Table 17 # 2: dose 2.00 mg, 4 mJ/filament, 1.0 cm^2, 400 filaments/cm^2): 102 ± 13.3%
- bioavailability ([2]; 3 mg, Table 17 # 3: dose 3.00 mg, 4 mJ/filament, 1.0 cm^2, 400 filaments/cm^2): 76 ± 4.9%
- bioavailability ([2]; 4 mg, Table 17 # 4: dose 4.00 mg, 4 mJ/filament, 1.5 cm^2, 400 filaments/cm^2): 88.9 ± 4.6%
- bioavailability ([2]; 4 mg, Table 17 # 5: dose 4.00 mg, 4 mJ/filament, 2.0 cm^2, 400 filaments/cm^2): 105 ± 7.9%
- bioavailability ([2]; 4 mg, Table 17 # 6: dose 4.00 mg, 5 mJ/filament, 1.5 cm^2, 400 filaments/cm^2): 97.9 ± 12.3%
- AUC [2, 7]: 364 ± 23 ng·h/mL
- Cmax [2, 7]: 190 ± 34 ng/mL
- Tmax [2, 7]: 0.63 ± 0.13 h
- AUC [2, 8]: 238 ± 13 ng·h/mL
- Cmax [2, 8]: 60 ± 13 ng/mL
- Tmax [2, 8]: 2.75 ± 1.25 h
- AUC [2, 9]: 1520 ± 177 ng·h/mL
- Cmax [2, 9]: 520 ± 51 ng/mL
- Tmax [2, 9]: 1.31 ± 0.19 h
- AUC [2, 10]: 1750 ± 116 ng·h/mL
- Cmax [2, 10]: 487 ± 63 ng/mL
- Tmax [2, 10]: 1.63 ± 0.13 h
- AUC [2, 11]: 1040 ± 113 ng·h/mL
- Cmax [2, 11]: 222 ± 30 ng/mL
- Tmax [2, 11]: 2.75 ± 0.72 h
- AUC [2, 12]: 1030 ± 159 ng·h/mL
- Cmax [2, 12]: 423 ± 30 ng/mL
- Tmax [2, 12]: 0.81 ± 0.06 h
- AUC [2, 13]: 2100 ± 275 ng·h/mL
- Cmax [2, 13]: 896 ± 191 ng/mL
- Tmax [2, 13]: 1.06 ± 0.16 h
- AUC [2, 14]: 1490 ± 206 ng·h/mL
- Cmax [2, 14]: 484 ± 130 ng/mL
- Tmax [2, 14]: 2.33 ± 0.83 h
- AUC [2, 15]: 1750 ± 116 ng·h/mL
- Cmax [2, 15]: 487 ± 63 ng/mL
- Tmax [2, 15]: 1.63 ± 0.13 h
- AUC [2, 16]: 2100 ± 275 ng·h/mL
- Cmax [2, 16]: 896 ± 191 ng/mL
- Tmax [2, 16]: 1.06 ± 0.16 h
- AUC [2, 17]: 1970 ± 108 ng·h/mL
- Cmax [2, 17]: 752 ± 89 ng/mL
- Tmax [2, 17]: 1.33 ± 0.33 h
- AUC [2, 18]: 2100 ± 275 ng·h/mL
- Cmax [2, 18]: 896 ± 191 ng/mL
- Tmax [2, 18]: 1.06 ± 0.16 h
- AUC [2, 19]: 2350 ± 152 ng·h/mL
- Cmax [2, 19]: 756 ± 115 ng/mL
- Tmax [2, 19]: 1.63 ± 0.13 h
- AUC [2, 20]: 3660 ± 189 ng·h/mL
- Cmax [2, 20]: 1310 ± 129 ng/mL
- Tmax [2, 20]: 1.33 ± 0.17 h
- AUC [2, 21]: 4310 ± 315 ng·h/mL
- Cmax [2, 21]: 2200 ± 358 ng/mL
- Tmax [2, 21]: 1.25 ± 0.14 h
- AUC [2, 22]: 4030 ± 506 ng·h/mL
- Cmax [2, 22]: 1710 ± 185 ng/mL
- Tmax [2, 22]: 0.75 ± 0.14 h
Compound: CN(C)CCc1c[nH]c2ccc(C[C@H]3COC(=O)N3)cc12 [Zolmitriptan]
